One may read the Kd as the equilibrium constant for the complex coming apart. For orientation: IC50 means the concentration that inhibits the measured activity by half. Read a low IC50 as higher potency.

Drawing on patent publication US20230279025A1, “KRAS G12D INHIBITORS” (Mirati Therapeutics, Inc., priority 2020, published 2023), this text covers Kd and IC50 for 19 molecules.

The structures appear in SMILES notation.

Assay [1] has as its target T1, KRas G12D (Homo sapiens (Human), UniProt P01116, G12D). The assay is described as follows: KRas G12D Surface Plasmon Resonance (SPR) Binding Assay. To be noted: Biacore T200, immobilized biotinylated KRAS protein, 1:1 binding model. Here is the method: Briefly, 1L of 1.05X HBS-Mg buffer (262.5 mM Bioultra Hepes, pH 7.5, 157.5 mM NaCl, 105 mM MgCl2, 0.525 mM TCEP, 0.0305% Brij-35) was prepared and filter sterilized using a 0.22 μm bottle top filter. Approximately 50 mL of 1.05X HBS-Mg buffer was removed and saved for future dilutions. A 50 mL aliquot of DMSO (Sigma Aldrich DMSO Lot. #SHBK2079) was added and continued to stir for 10 minutes, creating the final 1.0X HBS-Mg buffer (250 mM Bioultra Hepes pH 7.5, 150 mM NaCl, 100 mM MgCl2, 0.5 mM TCEP, 0.03% Brij-35).
Biacore T200 instrument was primed using 1.0X HBS-Mg buffer before docking a GE Streptavidin (SA) chip and then primed two additional times prior to beginning the immobilization step. All immobilized protein mixtures were created using 3-5 mg/mL Biotinylated Avidin-tagged KRAS protein using the following immobilization settings: SA chip type, 1 flow cells per cycle, 720 second contact time, and 5 ul/min flow rate. Normalization of the detector was also performed during the immobilization step using the GE BiaNormalize solution.
All compounds were diluted to 10 mM in 100% DMSO prior to being diluted 20X in 1.05X buffer. Another 10X dilution was created using 1.0X buffer prior to performing a series of 3X dilutions to create a compound concentration curve using the following assay settings: 20C analysis temperature, General Settings=10 Hz data collection rate and multi-detection; Assay Steps=all set to LMW kinetics; Cycle Types=LMW kinetics (60 s contact time, 120 s dissociation time, 100 ul/min flow rate, extra wash after injection with 50% DMSO, flow path 1,2,3,4); Flow path detection=2-1, 4-3). Data evaluation was performed using the Biacore T200 Evaluation software and data fit to 1:1 binding model. ND=not determined.
In general terms: SPR reads the build-up and loss of mass on a sensor chip optically.
Target sequence in this assay (P01116-2 other isoform, or with tags, fused parts or gaps G12D): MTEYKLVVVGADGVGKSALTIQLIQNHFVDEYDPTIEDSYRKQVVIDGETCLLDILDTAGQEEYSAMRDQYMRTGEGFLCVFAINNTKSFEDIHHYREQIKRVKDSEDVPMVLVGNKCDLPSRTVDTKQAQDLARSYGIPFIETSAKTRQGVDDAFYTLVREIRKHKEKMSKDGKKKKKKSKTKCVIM

Assay [2] deals with T1, KRas G12D. The experiment in a line: KRas G12D Binding Assay (TR-FRET displacement of Cy5 labelled tracer). As to conditions: GDP-loaded KRAS G12D (amino acids 1:169), 60 minute incubation at 22° C. As to the method:
After a 60 minute incubation at 22° C., the reaction was measured using a PerkinElmer EnVision multimode plate reader via TR-FRET dual wavelength detection, and the percent of control (POC) calculated using a ratiometric emission factor. […] The POC values were fit to a 4-parameter logistic curve and the IC50 value was determined as the concentration where the curve crosses 50 POC.
ND stands for “not determined.”
Target sequence in this assay (P01116 other isoform, or with tags, fused parts or gaps G12D): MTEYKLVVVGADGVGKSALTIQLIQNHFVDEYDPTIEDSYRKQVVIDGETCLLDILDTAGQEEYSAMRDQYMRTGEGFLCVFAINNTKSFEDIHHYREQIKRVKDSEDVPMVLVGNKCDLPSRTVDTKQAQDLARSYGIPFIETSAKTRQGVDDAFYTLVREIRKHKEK

For `CCO[C@@H]1C[C@@H](COc2nc(N3C[C@H]4CC[C@@H](C3)N4)c3cnc(-c4cccc5cccc(Cl)c45)c(F)c3n2)N(C)C1` [Example 43, 4-((1R,5S)-3,8-diazabicyclo[3.2.1]octan-3-yl)-7-(8-chloronaphthalen-1-yl)-2-(((2S,4R)-4-ethoxy-1-methylpyrrolidin-2-yl)methoxy)-8-fluoropyrido[4,3-d]pyrimidine], the Kd in assay [1] came to 0.188 µM. In assay [2], this molecule yielded a 50% inhibitory concentration (IC50) of 0.0722 µM.

Molecule `Cn1ccnc1CCOc1nc(N2C[C@H]3CC[C@@H](C2)N3)c2cnc(-c3cccc4ccc(F)cc34)c(F)c2n1` [Example 112, 4-((1R,5S)-3,8-diazabicyclo[3.2.1]octan-3-yl)-8-fluoro-7-(7-fluoronaphthalen-1-yl)-2-(2-(1-methyl-1H-imidazol-2-yl)ethoxy)pyrido[4,3-d]pyrimidine] registered a dissociation constant (Kd) in assay [1] of 0.983 µM. Also, the IC50 in assay [2] stood at 0.718 µM.

Regarding `Oc1cc(-c2ncc3c(N4C[C@H]5CC[C@@H](C4)N5)nc(OCCc4ncccn4)nc3c2F)c2ccccc2c1` [Example 7, 4-(4-((1R,5S)-3,8-diazabicyclo[3.2.1]octan-3-yl)-8-fluoro-2-(2-(pyrimidin-2-yl)ethoxy)pyrido[4,3-d]pyrimidin-7-yl)naphthalen-2-ol], the Kd in assay [1] is 0.464 µM. The molecule further yielded an IC50 in assay [2] of 1.87 µM.

`Fc1c(-c2cncc3cccc(Cl)c23)ncc2c(N3C[C@H]4CC[C@@H](C3)N4)nc(OCC34CCCN3CCC4)nc12` [Example 33, 4-((1R,5S)-3,8-diazabicyclo[3.2.1]octan-3-yl)-7-(5-chloroisoquinolin-4-yl)-8-fluoro-2-((tetrahydro-1H-pyrrolizin-7a(5H)-yl)methoxy)pyrido[4,3-d]pyrimidine bis(2,2,2-trifluoroacetate)] displayed a Kd in assay [1] of 0.0717 µM. The molecule further came in with an IC50 in assay [2] of 0.0211 µM.

In assay [1], `CN1CCC[C@H]1COc1nc(N2C[C@H]3CC[C@@H](C2)N3)c2cnc(-c3cccc4cccc(CCC#N)c34)c(F)c2n1` [Example 117, 3-(8-(4-((1R,5S)-3,8-diazabicyclo[3.2.1]octan-3-yl)-8-fluoro-2-(((S)-1-methylpyrrolidin-2-yl)methoxy)pyrido[4,3-d]pyrimidin-7-yl)naphthalen-1-yl)propanenitrile bis(2,2,2-trifluoroacetate)] gave a dissociation constant (Kd) of 1 µM. Also, the IC50 in assay [2] amounted to 0.732 µM.

`COCCCN1CCC(Oc2nc(N3C[C@H]4CC[C@@H](C3)N4)c3cnc(-c4cc(O)cc5ccccc45)c(F)c3n2)CC1` [Example 41, 4-(4-((1R,5S)-3,8-diazabicyclo[3.2.1]octan-3-yl)-8-fluoro-2-((1-(3-methoxypropyl)piperidin-4-yl)oxy)pyrido[4,3-d]pyrimidin-7-yl)naphthalen-2-ol] returned an equilibrium dissociation constant (Kd) in assay [1] of 0.181 µM. Also, in assay [2], the half-inhibitory concentration (IC50) is 0.0767 µM.

In turn, `CN1CCC[C@H]1COc1nc(N2C[C@H]3CC[C@@H](C2)N3)c2cnc(-c3cccc4cccc(Cl)c34)c(F)c2n1` [Example 132, 4-((1R,5S)-3,8-diazabicyclo[3.2.1]octan-3-yl)-7-(8-chloronaphthalen-1-yl)-8-fluoro-2-(((S)-1-methylpyrrolidin-2-yl)methoxy)pyrido[4,3-d]pyrimidine] gave a Kd in assay [1] of 0.0647 µM. For the same molecule, the 50% inhibitory concentration (IC50) in assay [2] amounted to 0.0605 µM.

`Fc1c(-c2cccc3cccc(Cl)c23)ncc2c(N3C[C@H]4CC[C@@H](C3)N4)nc(OCCc3cn4ccccc4n3)nc12` [Example 92, 4-((1R,5S)-3,8-diazabicyclo[3.2.1]octan-3-yl)-7-(8-chloronaphthalen-1-yl)-8-fluoro-2-(2-(imidazo[1,2-a]pyridin-2-yl)ethoxy)pyrido[4,3-d]pyrimidine] returned an equilibrium dissociation constant (Kd) in assay [1] of 2.3 µM. In assay [2], the IC50 worked out at 1.35 µM.

For `COCCOc1nc(N2C[C@H]3CC[C@@H](C2)N3)c2cnc(-c3cc(O)cc4ccccc34)c(F)c2n1` [Example 70, 4-(4-((1R,5S)-3,8-diazabicyclo[3.2.1]octan-3-yl)-8-fluoro-2-(2-methoxyethoxy)pyrido[4,3-d]pyrimidin-7-yl)naphthalen-2-ol], the dissociation constant Kd in assay [1] came to 0.417 µM. In assay [2], this molecule returned an IC50 of 0.356 µM.

In the case of `CO[C@@H]1C[C@@H](COc2nc(N3C[C@H]4CC[C@@H](C3)N4)c3cnc(-c4cccc5cccc(Cl)c45)c(F)c3n2)N(C)C1` [Example 34, 4-((1R,5S)-3,8-diazabicyclo[3.2.1]octan-3-yl)-7-(8-chloronaphthalen-1-yl)-8-fluoro-2-(((2S,4R)-4-methoxy-1-methylpyrrolidin-2-yl)methoxy)pyrido[4,3-d]pyrimidine], the Kd in assay [1] was found to be 0.119 µM. In assay [2], this molecule yielded a concentration for half-maximal inhibition (IC50) of 0.135 µM.

In assay [1], `Oc1cc(-c2ncc3c(N4C[C@H]5CC[C@@H](C4)N5)nc(OC[C@@H]4CC5CCN4C5)nc3c2F)c2ccccc2c1` [Example 40, 4-(2-(((2S)-1-azabicyclo[2.2.1]heptan-2-yl)methoxy)-4-((1R,5S)-3,8-diazabicyclo[3.2.1]octan-3-yl)-8-fluoropyrido[4,3-d]pyrimidin-7-yl)naphthalen-2-ol] displayed a Kd of 0.0017 µM. Besides, the IC50 in assay [2] is 0.004 µM.

Take `O[C@@H]1C[C@@H]2CN(c3nc(OC[C@@]45CCCN4C[C@H](F)C5)nc4c(F)c(-c5cccc6cccc(Cl)c56)ncc34)C[C@H]1N2` [Example 395, (1R,5R,6R)-3-(7-(8-chloronaphthalen-1-yl)-8-fluoro-2-((2-fluorotetrahydro-1H-pyrrolizin-7a(5H)-yl)methoxy)pyrido[4,3-d]pyrimidin-4-yl)-3,8-diazabicyclo[3.2.1]octan-6-ol]: the affinity in assay [1], expressed as Kd, was 0.0026 µM. In addition, the IC50 in assay [2] was 0.0069 µM.

In assay [1], `CO[C@@H]1C[C@@H]2CN(c3nc(OC[C@@]45CCCN4C[C@H](F)C5)nc4c(F)c(-c5cccc6cccc(Cl)c56)ncc34)C[C@H]1N2` [Example 397, 7-(8-chloronaphthalen-1-yl)-8-fluoro-2-((2-fluorotetrahydro-1H-pyrrolizin-7a(5H)-yl)methoxy)-4-((1R,5R,6R)-6-methoxy-3,8-diazabicyclo[3.2.1]octan-3-yl)pyrido[4,3-d]pyrimidine] yielded a dissociation constant Kd of 0.183 µM. This molecule also gave a half-inhibitory concentration (IC50) in assay [2] of 0.887 µM.

On to `CN1CCC[C@H]1COc1nc(N2CC3CCC(CCC#N)(C2)N3)c2cnc(-c3cc(O)cc4ccccc34)c(F)c2n1` (stereo partly drawn) [Example 157, 3-(3-(8-fluoro-7-(3-hydroxynaphthalen-1-yl)-2-(((S)-1-methylpyrrolidin-2-yl)methoxy)pyrido[4,3-d]pyrimidin-4-yl)-3,8-diazabicyclo[3.2.1]octan-1-yl)propanenitrile bis(2,2,2-trifluoroacetate)], for which binding in assay [1] was characterised by a dissociation constant (Kd) of 0.0229 µM. Also, the 50% inhibitory concentration (IC50) in assay [2] turned out to be 0.0266 µM.

In the case of `Oc1cc(-c2ncc3c(N4C[C@H]5CC[C@@H](C4)N5)nc(OCCc4ccccc4F)nc3c2F)c2ccccc2c1` [Example 67, 4-(4-((1R,5S)-3,8-diazabicyclo[3.2.1]octan-3-yl)-8-fluoro-2-(2-fluorophenethoxy)pyrido[4,3-d]pyrimidin-7-yl)naphthalen-2-ol], the affinity in assay [1], expressed as Kd, was 1.15 µM. In assay [2], this molecule had an IC50 of 1.25 µM.

In assay [1], `COc1nc(N2C[C@H]3CC[C@@H](C2)N3)c2cnc(-c3cccc4cccc(C)c34)c(F)c2n1` [Example 317, 4-((1R,5S)-3,8-diazabicyclo[3.2.1]octan-3-yl)-8-fluoro-2-methoxy-7-(8-methylnaphthalen-1-yl)pyrido[4,3-d]pyrimidine] came in with a Kd of 91.3 µM. The IC50 in assay [2] is greater than 10 µM.

Consider `CN(C)CCOc1nc(N2C[C@H]3CC[C@@H](C2)N3)c2cnc(-c3cc(O)cc4ccccc34)c(F)c2n1` [Example 18, 4-(4-((1R,5S)-3,8-diazabicyclo[3.2.1]octan-3-yl)-2-(2-(dimethylamino)ethoxy)-8-fluoropyrido[4,3-d]pyrimidin-7-yl)naphthalen-2-ol], for which binding in assay [1] was put at a Kd of 0.0031 µM. In addition, the IC50 in assay [2] stood at 0.0768 µM.

In assay [1], `Oc1cc(-c2ncc3c(N4C[C@H]5CC[C@@H](C4)N5)nc(OCCCC(F)(F)F)nc3c2F)c2ccccc2c1` [Example 38, 4-(4-((1R,5S)-3,8-diazabicyclo[3.2.1]octan-3-yl)-8-fluoro-2-(4,4,4-trifluorobutoxy)pyrido[4,3-d]pyrimidin-7-yl)naphthalen-2-ol] had a dissociation constant (Kd) of 0.75 µM. In assay [2], this molecule came in with a half-maximal inhibitory concentration (IC50) of 0.174 µM.

The molecule `Cn1ccnc1CCOc1nc(N2C[C@H]3C[C@@H](O)[C@@H](C2)N3)c2cnc(-c3cccc4cccc(Cl)c34)c(F)c2n1` [Example 173, (1R,5R,6R)-3-(7-(8-chloronaphthalen-1-yl)-8-fluoro-2-(2-(1-methyl-1H-imidazol-2-yl)ethoxy)pyrido[4,3-d]pyrimidin-4-yl)-3,8-diazabicyclo[3.2.1]octan-6-ol] gave a Kd in assay [1] of 0.117 µM. The same molecule gave an IC50 in assay [2] of 0.0992 µM.
